Measured values published in patent publication US5527703A (Merck & Co., Inc., priority 1994, dated 1996).

Assays:
GluClα = target: T1, GluClα (Caenorhabditis elegans, UniProt G5EBR3); test: Activation of current in Xenopus oocytes expressing homomeric GluClα (voltage clamp); format: cell-based, C. elegans; design: the full-length open reading frame of the GluCl cDNA encoding the GluClα (52,550 kDa) and GluClβ (49,900kDa) subunits; expressed in transfected cells; host or cells: Xenopus laevis oocytes injected with in vitro RNA
T1 sequence (G5EBR3 21-461): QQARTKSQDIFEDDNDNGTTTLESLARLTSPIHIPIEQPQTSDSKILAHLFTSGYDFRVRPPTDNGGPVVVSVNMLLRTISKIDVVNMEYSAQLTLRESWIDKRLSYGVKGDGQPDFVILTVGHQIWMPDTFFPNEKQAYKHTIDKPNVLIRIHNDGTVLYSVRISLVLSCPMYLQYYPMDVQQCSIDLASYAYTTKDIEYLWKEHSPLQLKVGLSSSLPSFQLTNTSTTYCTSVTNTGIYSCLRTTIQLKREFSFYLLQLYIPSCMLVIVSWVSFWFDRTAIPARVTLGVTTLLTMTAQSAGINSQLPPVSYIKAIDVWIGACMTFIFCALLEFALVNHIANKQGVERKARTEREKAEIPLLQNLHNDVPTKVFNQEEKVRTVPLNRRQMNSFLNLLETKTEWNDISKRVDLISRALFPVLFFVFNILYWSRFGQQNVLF
Experimental: (§1) Xenopus laevis oocytes were prepared and injected using standard methods previously described and known in the art [Arena, J. P., Liu. K. K., Paress, P. S. & Cully. D. F. Mol. Pharmacol. 40, 368-374 (1991 ); Arena, J. P., Liu, K. K., Paress, P. S., Schaeffer, J. M. & Cully, D. F. Mol. Brain Res. 15, 339-348 (1992)]. Adult female Xenopus laevis were anesthetized with 0.17% tricaine methanesulfonate and the ovaries were surgically removed and placed in a dish consisting of (mM): NaCl 1 82.5, KCl 2. MgCl2 1, CaCl2 1.8, HEPES 5 adjusted to pH 7.5 with NaOH (OR-2). Ovarian lobes were broken open, rinsed several times, and gently shaken in OR-2 containing 0.2% collagenase (Sigma, Type 1A) for 2-5 hours. When approximately 50% of the follicular layers were removed, Stage V and VI oocytes were selected and placed in media consisting of (mM): NaCl 86, KCl 2, MgCl2 1, CaCl2 1.8, HEPES 5, Na pyruvate 2.5, theophylline 0.5, gentamicin 0.1 adjusted to pH 7.5 with NaOH (ND-96) for 24-48 hours before injection. Oocytes were injected with 50-70 nl of poly(A^+) RNA (1 mg/ml) or 50 nl of GluClα (0.1-100 ng) and/or GluClβ (0.1-100 ng). Control oocytes were injected with 50 nl of water. Oocytes were incubated for 2-10 days in ND-96 before recording. Incubations and collagenase digestion were carried out at 18° C.
(§2) Recordings were made at room temperature 2-10 days after injection. Unless otherwise indicated recordings were made in standard frog saline consisting of (mM): NaCl 115, KCl 2, MgCl2 1, CaCl2 1.8, HEPES 10 adjusted to pH 7.5 with NaOH. Oocytes were voltage-clamped using a standard two microelectrode amplifier (Dagan 8500 or TEV-200, Minneapolis,Minn.). Pipettes were filled with 3M KCl and had resistances between 0.5-3.0 M.OMEGA.. A plexiglass recording chamber (volume 200 μl) was constantly perfused at a rate of 10 ml/min. The recording chamber was connected to ground with a Ag/AgCl electrode directly, or through a 3M KCl agar bridge when extracellular chloride was varied. For low chloride solutions NaCl was replaced with equimolar concentrations of sodium isethionic acid. For low sodium solutions NaCl was replaced with equimolar KCl or choline Cl. Data were acquired and analyzed using PCLAMP with a TL-1 interface (Axon Instruments, Foster City, Calif.). Membrane current at a holding potential of -80 mV was recorded. The amplitude of drug-sensitive current was determined by subtracting the holding current at -80 mV from the peak current obtained in the presence of drug. Data were filtered at 30 Hz and sampled at 16.6 Hz. Current/voltage relationships (I/V) and reversal potentials (Erev) were determined using a 1-3 sec voltage ramp over the voltage range of -110 to +80 mV. For the ramps, data were filtered at 0.3-3 kHz and sampled at 160 Hz. Current in drug free solution was subtracted from current in the presence of drug to obtain drug-sensitive current/voltage relationships.
(§3) Electrophysiological properties were examined in oocytes injected with in vitro RNA from pGluClα and pGluClβ (FIG. 5).

GluClβ = target: T2, GluClβ (Caenorhabditis elegans, UniProt Q17328); test: Activation of current in Xenopus oocytes expressing homomeric GluClβ (voltage clamp); format: cell-based, C. elegans
T2 construct: the full-length open reading frame of the GluCl cDNA encoding the GluClα (52,550 kDa) and GluClβ (49,900kDa) subunits; expressed in transfected cells; host or cells: Xenopus laevis oocytes injected with in vitro RNA
T2 sequence (Q17328 23-434): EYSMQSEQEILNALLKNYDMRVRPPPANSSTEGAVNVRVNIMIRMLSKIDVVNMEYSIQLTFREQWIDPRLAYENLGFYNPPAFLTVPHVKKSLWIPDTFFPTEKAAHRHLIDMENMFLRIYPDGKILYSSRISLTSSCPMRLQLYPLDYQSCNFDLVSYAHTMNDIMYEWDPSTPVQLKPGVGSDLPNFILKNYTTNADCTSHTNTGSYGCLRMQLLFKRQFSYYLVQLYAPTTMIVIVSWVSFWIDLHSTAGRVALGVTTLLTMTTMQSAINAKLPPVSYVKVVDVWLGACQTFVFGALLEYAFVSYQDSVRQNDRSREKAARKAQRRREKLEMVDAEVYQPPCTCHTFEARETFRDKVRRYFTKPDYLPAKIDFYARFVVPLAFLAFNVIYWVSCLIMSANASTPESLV
Experimental: as §1, §2, §3

GluCl α&β = target: T3, GluCl α&β (Caenorhabditis elegans, UniProt G5EBR3+Q17328); test: Modulation of glutamate-sensitive current by IVMPO4, GluCl α&β injected oocytes; format: cell-based, C. elegans
T3 construct: the full-length open reading frame of the GluCl cDNA encoding the GluClα (52,550 kDa) and GluClβ (49,900kDa) subunits; expressed in transfected cells; host or cells: Xenopus laevis oocytes injected with in vitro RNA
T3 sequence (G5EBR3 21-461): T1 sequence (G5EBR3 21-461)
T3 sequence (Q17328 23-434): T2 sequence (Q17328 23-434)
Experimental: Xenopus laevis oocytes were prepared and injected using standard methods previously described and known in the art [Arena, J. P., Liu. K. K., Paress, P. S. & Cully. D. F. Mol. Pharmacol. 40, 368-374 (1991 ); Arena, J. P., Liu, K. K., Paress, P. S., Schaeffer, J. M. & Cully, D. F. Mol. Brain Res. 15, 339-348 (1992)]. Adult female Xenopus laevis were anesthetized with 0.17% tricaine methanesulfonate and the ovaries were surgically removed and placed in a dish consisting of (mM): NaCl 1 82.5, KCl 2. MgCl2 1, CaCl2 1.8, HEPES 5 adjusted to pH 7.5 with NaOH (OR-2). Ovarian lobes were broken open, rinsed several times, and gently shaken in OR-2 containing 0.2% collagenase (Sigma, Type 1A) for 2-5 hours. […]
(§4) Recordings were made at room temperature 2-10 days after injection. […] Data were acquired and analyzed using PCLAMP with a TL-1 interface (Axon Instruments, Foster City, Calif.). Membrane current at a holding potential of -80 mV was recorded. The amplitude of drug-sensitive current was determined by subtracting the holding current at -80 mV from the peak current obtained in the presence of drug. […] Current/voltage relationships (I/V) and reversal potentials (Erev) were determined using a 1-3 sec voltage ramp over the voltage range of -110 to +80 mV. […]

[1] = test system: glutamate- and avermectin-sensitive chloride channel (C. elegans poly(A)+ RNA); test: Current in Xenopus oocytes injected with C. elegans poly(A)+ RNA; format: cell-based; conditions: for type of drug-sensitive current: poly(A)+ RNA injected oocytes
Experimental: as §1
as §4, with “injection. Unless otherwise indicated recordings were made in standard frog saline consisting of (mM): NaCl 115, KCl 2, MgCl2 1, CaCl2 1.8, HEPES 10 adjusted to pH 7.5 with NaOH.” for “injection.”

Molecule | response of homomeric GluClα channels (GluClα) | sensitivity of GluClα channels to glutamate (GluClα; glutamate concentrations as high as 10 mM) | response of homomeric GluClβ channels (GluClβ) | threshold for activation of homomeric GluClβ channels (GluClβ) [µM] | Hill coefficient (glutamate) (GluClβ; GluClβ) | voltage dependence of current (GluClβ; I/V, GluClβ) | EC50 (GluClβ; read-out: EC50 for glutamate, GluClβ alone) [µM] | Hill coefficient (glutamate) with coapplied IVMPO4 (GluCl α&β; coapplication of IVMPO4 and glutamate) | type of drug-sensitive current [1] | Hill coefficient (IVMPO4) (GluClα; GluClα) | EC50 (GluClα; GluClα, read-out: EC50 for IVMPO4 activation of current) [µM] | voltage dependence of current (GluClα; I/V, GluClα) | time course for IVMPO4 activation (GluClα; homomeric GluClα) [s] | potentiation of glutamate-sensitive current (GluCl α&β; IVMPO4 5 nM) [%] | time for maximal activation of IVMPO4-sensitive current ([1]; poly(A)+ RNA) [s]
N[C@@H](CCC(=O)O)C(=O)O [glutamate] | do not respond | insensitive | selectively responsive | 50 | 1.9 | steep outwardly rectifying voltage dependence | 380 | 1.3 | rapidly activating reversible |  |  |  |  |  | 
ivermectin-4-O-phosphate [IVMPO4] | selectively responsive |  | do not respond |  |  |  |  |  | irreversible | 1.5 | 0.14 | essentially a linear voltage dependence | 18 ± 1 | 490±45 | 36 ± 3
